In ChEMBL document CHEMBL6109135, “Development of Diphenyl-1,2,4-Oxadiazole Analogues as Allosteric Modulators of the RXFP3 Receptor: Evaluation of Importance of the N-Substituted-2-Pyrrolidone Moiety in RLX-33” (J Med Chem, 2025):
Blank lines part the entries; values can stand above or below the compound they belong to.

How the values were obtained:
Relaxin-3 receptor 1 [1] = target: T1, Relaxin-3 receptor 1 (Homo sapiens, UniProt Q9NSD7); experiment: Negative allosteric modulation of human RXFP3 receptor expressed in CHO-K1 cell membrane assessed as inhibition of relaxin-3-induced stimulation of [35S]GTPgammaS binding followed by relaxin-3 addition and measured after 1 hr; assay type: functional, cell membranes
T1 sequence (Q9NSD7 whole entry): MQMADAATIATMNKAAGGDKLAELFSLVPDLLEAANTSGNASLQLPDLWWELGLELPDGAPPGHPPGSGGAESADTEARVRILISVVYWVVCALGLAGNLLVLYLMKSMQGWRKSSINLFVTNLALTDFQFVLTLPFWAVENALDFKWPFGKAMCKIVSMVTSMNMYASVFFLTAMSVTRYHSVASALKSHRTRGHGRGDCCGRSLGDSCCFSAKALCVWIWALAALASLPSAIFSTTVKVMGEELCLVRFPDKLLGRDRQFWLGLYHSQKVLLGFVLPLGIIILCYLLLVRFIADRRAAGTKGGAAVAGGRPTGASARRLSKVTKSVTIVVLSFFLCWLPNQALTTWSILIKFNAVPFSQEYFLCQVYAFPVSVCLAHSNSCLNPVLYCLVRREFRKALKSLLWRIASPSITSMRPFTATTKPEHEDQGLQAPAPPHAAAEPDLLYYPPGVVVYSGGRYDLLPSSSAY

[2] = Kinetic solubility of compound in PBS at pH 7.4 incubated under agitation for 2 hrs by LC-MS/MS analysis; assay type: physicochemical
Relaxin-3 receptor 1 [3] = target: T1, Relaxin-3 receptor 1; experiment: Negative allosteric modulation of human RXFP3 receptor expressed in CHO-K1 cells assessed as cAMP accumulation incubated for 30 mins in presence of forskolin by TR-FRET assay; assay type: functional, cell-based
[4] = Efflux ratio of apparent permeability across basolateral to apical over apical to basolateral side in MDCK-MDR1 cells at 10 uM incubated for 30 to 90 mins; assay type: ADME, cell-based, Canis lupus familiaris; details: dog, time 30-90 min
[5] = Metabolic stability in rat liver microsomes assessed as clearance measured up to 45 mins by LC-MS/MS analysis; assay type: ADME, Microsome; details: 0.75 h
[6] = Metabolic stability in rat liver microsomes assessed as half life measured up to 45 mins by LC-MS/MS analysis; assay type: ADME, Microsome
[7] = Apparent permeability of compound across basolateral to apical side in MDCK-MDR1 cells at 10 uM incubated for 30 to 90 mins; assay type: ADME, cell-based, Canis lupus familiaris; details: dog
[8] = Apparent permeability compound across apical to basolateral side in MDCK-MDR1 cells at 10 uM incubated for 30 to 90 mins; assay type: ADME, cell-based, Canis lupus familiaris; details: dog
Relaxin receptor 1 = target: T2, Relaxin receptor 1 (Homo sapiens, UniProt Q9HBX9); experiment: Negative allosteric modulation of human RXFP1 receptor expressed in CHO-K1 cells assessed as cAMP accumulation incubated for 30 mins by TR-FRET assay; assay type: functional, cell-based
T2 sequence (Q9HBX9 whole entry): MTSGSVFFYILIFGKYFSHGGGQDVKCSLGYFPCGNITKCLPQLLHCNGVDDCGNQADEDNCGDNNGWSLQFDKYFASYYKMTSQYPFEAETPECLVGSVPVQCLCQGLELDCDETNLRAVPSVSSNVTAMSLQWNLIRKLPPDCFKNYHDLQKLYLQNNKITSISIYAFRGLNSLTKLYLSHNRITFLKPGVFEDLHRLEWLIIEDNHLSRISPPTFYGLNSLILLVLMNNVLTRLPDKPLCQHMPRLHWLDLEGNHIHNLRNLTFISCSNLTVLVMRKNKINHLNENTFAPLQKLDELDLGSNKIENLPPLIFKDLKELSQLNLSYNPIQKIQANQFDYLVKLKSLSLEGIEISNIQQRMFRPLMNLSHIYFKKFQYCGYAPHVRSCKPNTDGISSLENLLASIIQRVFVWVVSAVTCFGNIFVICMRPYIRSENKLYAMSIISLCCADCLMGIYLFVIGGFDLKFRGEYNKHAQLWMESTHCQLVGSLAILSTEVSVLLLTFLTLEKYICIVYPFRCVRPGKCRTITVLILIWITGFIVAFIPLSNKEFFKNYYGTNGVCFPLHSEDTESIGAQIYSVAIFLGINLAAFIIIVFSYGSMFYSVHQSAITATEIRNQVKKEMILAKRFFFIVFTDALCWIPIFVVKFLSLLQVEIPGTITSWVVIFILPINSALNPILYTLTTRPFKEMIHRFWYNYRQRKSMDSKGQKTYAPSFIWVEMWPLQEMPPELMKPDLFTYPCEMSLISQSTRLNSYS

Relaxin-3 receptor 2 = Relaxin-3 receptor 2 (Homo sapiens, UniProt Q8TDU9); experiment: Negative allosteric modulation of human RXFP4 receptor expressed in CHO-K1 cells assessed as cAMP accumulation incubated for 30 mins by TR-FRET assay; assay type: functional, cell-based
[9] = Plasma protein binding in Wistar rat at 1 uM incubated for 6 hrs by LC-MS/MS analysis; assay type: ADME, cell-free
[10] = Cmax in female Wistar rat plasma at 10 mg/kg, ip administrated as single dose and measured 24 hrs post dose by LC-MS/MS analysis; assay type: ADME, organism-based; details: in vivo
[11] = AUClast in male Wistar rat plasma at 10 mg/kg, ip administrated as single dose and measured 24 hrs post dose by LC-MS/MS analysis; assay type: ADME, organism-based
[12] = AUClast in male Wistar rat brain at 10 mg/kg, ip measured 24 hrs post dose by LC-MS/MS analysis; assay type: ADME, organism-based
[13] = Tmax in female Wistar rat brain at 10 mg/kg, ip measured 24 hrs post dose by LC-MS/MS analysis; assay type: ADME, organism-based; details: in vivo
[14] = Tmax in male Wistar rat brain at 10 mg/kg, ip measured 24 hrs post dose by LC-MS/MS analysis; assay type: ADME, organism-based; details: in vivo
[15] = Clearance in male Wistar rat plasma at 10 mg/kg, ip administrated as single dose and measured 24 hrs post dose by LC-MS/MS analysis; assay type: ADME, organism-based
[16] = Half life in female Wistar rat plasma at 10 mg/kg, ip administrated as single dose and measured 24 hrs post dose by LC-MS/MS analysis; assay type: ADME, organism-based; details: in vivo
[17] = Cmax in male Wistar rat plasma at 10 mg/kg, ip administrated as single dose and measured 24 hrs post dose by LC-MS/MS analysis; assay type: ADME, organism-based; details: in vivo
[18] = Brain concentration in female Wistar rat at 10 mg/kg, ip measured after 24 hrs; assay type: ADME, organism-based; details: in vivo
[19] = Brain concentration in male Wistar rat at 10 mg/kg, ip measured after 24 hrs; assay type: ADME, organism-based; details: in vivo
[20] = Cmax in female Wistar rat brain at 10 mg/kg, ip measured 24 hrs post dose by LC-MS/MS analysis; assay type: ADME, organism-based
[21] = AUClast in female Wistar rat plasma at 10 mg/kg, ip administrated as single dose and measured 24 hrs post dose by LC-MS/MS analysis; assay type: ADME, organism-based
[22] = AUClast in female Wistar rat brain at 10 mg/kg, ip measured 24 hrs post dose by LC-MS/MS analysis; assay type: ADME, organism-based
[23] = Cmax in male Wistar rat brain at 10 mg/kg, ip measured 24 hrs post dose by LC-MS/MS analysis; assay type: ADME, organism-based
[24] = Tmax in female Wistar rat plasma at 10 mg/kg, ip administrated as single dose and measured 24 hrs post dose by LC-MS/MS analysis; assay type: ADME, organism-based; details: in vivo
[25] = Tmax in male Wistar rat plasma at 10 mg/kg, ip administrated as single dose and measured 24 hrs post dose by LC-MS/MS analysis; assay type: ADME, organism-based; details: in vivo
[26] = Clearance in female Wistar rat plasma at 10 mg/kg, ip administrated as single dose and measured 24 hrs post dose by LC-MS/MS analysis; assay type: ADME, organism-based
[27] = Half life in male Wistar rat plasma at 10 mg/kg, ip administrated as single dose and measured 24 hrs post dose by LC-MS/MS analysis; assay type: ADME, organism-based; details: in vivo
[28] = mdck-mdr1, 10 µM, time 30-90 min

Sequence of Relaxin-3 receptor 2 (Q8TDU9 whole entry): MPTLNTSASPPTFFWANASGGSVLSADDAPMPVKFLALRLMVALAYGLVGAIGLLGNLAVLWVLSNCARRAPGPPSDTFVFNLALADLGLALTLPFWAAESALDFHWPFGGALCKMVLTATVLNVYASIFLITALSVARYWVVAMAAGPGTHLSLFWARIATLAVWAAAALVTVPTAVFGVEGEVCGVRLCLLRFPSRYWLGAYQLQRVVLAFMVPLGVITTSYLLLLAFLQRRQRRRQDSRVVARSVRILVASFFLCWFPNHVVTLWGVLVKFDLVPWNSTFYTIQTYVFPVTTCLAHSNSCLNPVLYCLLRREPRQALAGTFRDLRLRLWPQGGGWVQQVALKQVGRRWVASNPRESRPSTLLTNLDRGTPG

- solubility kinetic at 2 h ([2]; PBS, pH 7.4, read-out: Kinetic_solubility): < 1 µM
- IC50 (Relaxin-3 receptor 1 [3]; cho-k1): 2360 nM
- IC50 (Relaxin-3 receptor 1 [1]): 3020 nM
- efflux ratio at 10 µM [4]: 1
- CLH [5]: 132 µL/min/mg
- half-life ([6]; liver microsomes): 0.177 h
- Papp B→A at 10 µM ([7]; MDCK-MDR1, time 30-90 min): 1.3 ×10⁻⁶ cm/s
- Papp A→B at 10 µM ([8]; MDCK-MDR1, time 30-90 min): 1.3 ×10⁻⁶ cm/s
SMILES: O=C(Nc1ccc(-c2nc(-c3ccc(Cl)cc3)no2)cc1)C1CC(=O)N(Cc2ccco2)C1 (stereo not given)

- IC50 (Relaxin-3 receptor 1 [1]): 1180 nM
SMILES: CNCCCN1CC(C(=O)Nc2ccc(-c3nc(-c4ccc(Cl)cc4)no3)cc2)CC1=O (stereo not given)

- IC50 (Relaxin receptor 1): > 100000 nM
- IC50 (Relaxin-3 receptor 2): 14300 nM
SMILES: CNCCN1CCC(C(=O)Nc2ccc(-c3nc(-c4ccc(Cl)cc4)no3)cc2)CC1

- IC50 (Relaxin-3 receptor 1 [1]): 2090 nM
SMILES: CNCCCC(=O)Nc1ccc(-c2nc(-c3ccc(Cl)cc3)no2)cc1

- IC50 (Relaxin receptor 1): > 100000 nM
- IC50 (Relaxin-3 receptor 2): 34300 nM
SMILES: CNCCN1CC(C(=O)Nc2ccc(-c3nc(-c4ccc(Cl)cc4)no3)cc2)CC1=O (stereo not given)

- IC50 (Relaxin-3 receptor 1 [1]): 1450 nM
SMILES: NCCN1CC(C(=O)Nc2ccc(-c3nc(-c4ccc(Cl)cc4)no3)cc2)CC1=O (stereo not given)

- IC50 (Relaxin-3 receptor 1 [1]): 1700 nM
SMILES: O=C(Nc1ccc(-c2nc(-c3ccc(Cl)cc3)no2)cc1)C1CC(=O)N(CC2CCNC2)C1 (racemic)

The remaining lines, values behind:

SMILES: O=C(Nc1ccc(-c2nc(-c3ccc(Cl)cc3)no2)cc1)C1CC(=O)N(Cc2cccnc2)C1 (stereo not given)
- IC50 (Relaxin-3 receptor 1 [1]): 2630 nM

SMILES: CNCC(=O)Nc1ccc(-c2nc(-c3ccc(Cl)cc3)no2)cc1
- IC50 (Relaxin-3 receptor 1 [1]): 2630 nM

SMILES: O=C(Nc1ccc(-c2nc(-c3ccc(Cl)cc3)no2)cc1)C1CC(=O)N(CC2CCNCC2)C1 (stereo not given)
- IC50 (Relaxin-3 receptor 1 [1]): 710 nM

SMILES: O=C(Nc1ccc(-c2nc(-c3ccc(Cl)cc3)no2)cc1)[C@@H]1CC(=O)N(C[C@@H]2CCCNC2)C1
- PPB [9]: 98%
- Kinetic_solubility ([2]; buffer, pH 7.4, 2 h): 10.1 µM
- Cmax [10]: 2117 ng/mL
- AUC(0-t) at 24 h [11]: 7370 ng·h/mL
- CLH [5]: 6.8 µL/min/mg
- AUC(0-t) at 24 h [12]: 3270 ng·h/mL
- Tmax [13]: 2 h
- Tmax [14]: 1 h
- CL/F [15]: 18 mL/min/kg
- t1/2 [16]: 10 h
- Cmax [17]: 2121 ng/mL
- Drug uptake [18]: Active
- Drug uptake [19]: Active
- IC50 (Relaxin receptor 1): > 100000 nM
- Cmax [20]: 157 ng/mL
- IC50 (Relaxin-3 receptor 2): > 100000 nM
- t1/2 ([6]; microsomes, 0.75 h): 3.42 h
- AUC(0-t) at 24 h [21]: 8130 ng·h/mL
- AUC(0-t) at 24 h [22]: 1930 ng·h/mL
- Cmax [23]: 185 ng/mL
- Tmax [24]: 0.5 h
- Tmax [25]: 0.5 h
- Papp [7, 28]: 3.1 10^-6 cm/s
- CL/F [26]: 18 mL/min/kg
- t1/2 [27]: 12 h
- Papp [8, 28]: 1.1 10^-6 cm/s

SMILES: CNCCC(=O)Nc1ccc(-c2nc(-c3ccc(Cl)cc3)no2)cc1
- IC50 (Relaxin-3 receptor 1 [3]): 590 nM
- IC50 (Relaxin-3 receptor 1 [1]): 1050 nM
- IC50 (Relaxin receptor 1): 19600 nM
- IC50 (Relaxin-3 receptor 2): 4870 nM

SMILES: O=C(Nc1ccc(-c2nc(-c3ccc(Cl)cc3)no2)cc1)C1CC(=O)N(CC2CCCCN2)C1 (racemic)
- IC50 (Relaxin-3 receptor 1 [1]): 960 nM
